According to PubChem BioAssay AID314 (DTP/NCI, 2004):
Where “and” joins values, the source holds several entries; their conditions need not be identical. Equal values may be shown once. Toxic doses and inconclusive results are not listed.

Test system: DBA/2 mice, P1534 leukemia ip, survival T/C
Test: NCI In Vivo Anticancer Drug Screen. Data for tumor model P1534 Leukemia (intraperitoneal) in DBA/2 mice
Conditions: endpoint: mean survival time, higher = longer survival
Procedure: The antitumor activity of compounds was measured in mice bearing transplantable tumors. Survival or tumor size were measured and the results are expressed as the measurement made in the treated group (T) divided by the measurement made in the vehicle treated control group (C). The tumor model used in this assay is P1534 Leukemia (intraperitoneal) in DBA/2 mice

[1] = dose: 8.0 mg/kg/injection, schedule: Q01DX010 (ip), vehicle: saline
[2] = dose: 16.0 mg/kg/injection, schedule: Q01DX010 (ip), vehicle: saline
[3] = dose: 32.0 mg/kg/injection, schedule: Q01DX010 (ip), vehicle: saline
[4] = dose: 31.3 mg/kg/injection, schedule: Q01DX010 (ip), vehicle: saline
[5] = dose: 3.13 mg/kg/injection, schedule: Q01DX010 (ip), vehicle: saline
[6] = dose: 6.25 mg/kg/injection, schedule: Q01DX010 (ip), vehicle: saline
[7] = dose: 12.5 mg/kg/injection, schedule: Q01DX010 (ip), vehicle: saline
[8] = dose: 25.0 mg/kg/injection, schedule: Q01DX010 (ip), vehicle: saline
[9] = dose: 1.25 mg/kg/injection, schedule: Q01DX010 (ip), vehicle: saline
[10] = dose: 2.5 mg/kg/injection, schedule: Q01DX010 (ip), vehicle: saline
[11] = dose: 50.0 mg/kg/injection, schedule: Q01DX010 (ip), vehicle: saline
[12] = dose: 100.0 mg/kg/injection, schedule: Q01DX010 (ip), vehicle: saline
[13] = dose: 0.5 mg/kg/injection, schedule: Q01DX010 (ip), vehicle: saline
[14] = dose: 1.0 mg/kg/injection, schedule: Q01DX010 (ip), vehicle: saline
[15] = dose: 2.0 mg/kg/injection, schedule: Q01DX010 (ip), vehicle: saline
[16] = dose: 10.0 mg/kg/injection, schedule: Q01DX010 (ip), vehicle: saline
[17] = dose: 250.0 mg/kg/injection, schedule: Q01DX010 (ip), vehicle: saline
[18] = dose: 0.13 mg/kg/injection, schedule: Q01DX010 (ip), vehicle: saline
[19] = dose: 0.25 mg/kg/injection, schedule: Q01DX010 (ip), vehicle: saline

With O=C(Nc1ccc(C2=NCCN2)cc1)c1cccc(C(=O)Nc2ccc(C3=NCCN3)cc2)c1 the T/C [1] was 163 % of control, the T/C [2] was 177 % of control and the T/C [3] was 240 % of control. The T/C (dose: 64.0 mg/kg/injection, schedule: Q01DX010 (ip), vehicle: saline) was 290 % of control.
Nc1nc(SCc2ccccc2)c2[nH]cnc2n1 was tested, and the T/C [1] was 92 % of control and 100 % of control, the T/C [2] was 100 % of control and the T/C [4] was 88 % of control. The T/C [3] was 100 % of control and 103 % of control.
In the case of C[C@]12CCC(=O)C[C@H]1CC[C@@H]1[C@@H]2CC[C@@]2(C)[C@H]1CC[C@]2(C)O, the T/C (dose: 50.0 mg/kg/injection, schedule: Q01DX010 (sc), vehicle: saline) is reported as 104 % of control, the T/C (dose: 100.0 mg/kg/injection, schedule: Q01DX010 (sc), vehicle: saline) is reported as 100 % of control and the T/C (dose: 200.0 mg/kg/injection, schedule: Q01DX010 (sc), vehicle: saline) is reported as 100 % of control. For the same compound, the T/C (dose: 400.0 mg/kg/injection, schedule: Q01DX010 (sc), vehicle: saline) was 108 % of control.
CS(=O)(=O)OCCC(=O)N1CCN(C(=O)CCOS(C)(=O)=O)CC1 was tested, and the T/C [5] was 107 % of control, the T/C [6] was 103 % of control and the T/C [7] was 119 % of control. The T/C [8] was 120 % of control.
For COC(=O)C1C(O)CCC2CN3CCc4c([nH]c5ccccc45)C3CC21 (stereo not given), the T/C (dose: 0.31 mg/kg/injection, schedule: Q01DX010 (ip), vehicle: saline) was 103 % of control, the T/C (dose: 0.63 mg/kg/injection, schedule: Q01DX010 (ip), vehicle: saline) was 103 % of control and the T/C [9] was 106 % of control. The T/C [10] was 103 % of control.
For CO[C@H]1C[C@H](O[C@H]2CC[C@]3(C=O)[C@H]4CC[C@]5(C)[C@@H](C6=CC(=O)OC6)CC[C@]5(O)[C@@H]4CC[C@]3(O)C2)O[C@H](C)[C@H]1O, the T/C (dose: 1.25 mg/kg/injection, schedule: Q01DX010 (sc), vehicle: saline) was 92 % of control, the T/C (dose: 2.5 mg/kg/injection, schedule: Q01DX010 (sc), vehicle: saline) was 103 % of control and the T/C (dose: 5.0 mg/kg/injection, schedule: Q01DX010 (sc), vehicle: saline) was 92 % of control. The T/C (dose: 10.0 mg/kg/injection, schedule: Q01DX010 (sc), vehicle: saline) was 89 % of control.
CN(C)/N=N/c1nc[nH]c1C(N)=O was tested, and the T/C [8] was 96 % of control, the T/C [11] was 90 % of control and the T/C [12] was 86 % of control.
With C[C@H]1C(=O)O[C@@H]2CCN3CC=C(COC(=O)[C@](C)(O)[C@@]1(C)O)[C@H]23 the T/C [5] was 100 % of control and 117 % of control, the T/C [6] was 96 % of control and 107 % of control and the T/C [7] was 96 % of control and 107 % of control. The T/C [8] was 100 % of control.
COS(C)(=O)=O was tested, and the T/C [7] was 88 % of control and 100 % of control, the T/C [8] was 88 % of control and the T/C [11] was 92 % of control.
In the case of C[C@@H]1CC[C@@]2(NC1)O[C@H]1C[C@H]3[C@@H]4CC=C5C[C@@H](O)CC[C@]5(C)[C@H]4CC[C@]3(C)[C@H]1[C@@H]2C, the T/C (dose: 5.0 mg/kg/injection, schedule: Q01DX010 (sc), vehicle: steriod suspending solution) is reported as 100 % of control, the T/C (dose: 10.0 mg/kg/injection, schedule: Q01DX010 (sc), vehicle: steriod suspending solution) is reported as 106 % of control and the T/C (dose: 20.0 mg/kg/injection, schedule: Q01DX010 (sc), vehicle: steriod suspending solution) is reported as 96 % of control. For the same compound, the T/C (dose: 40.0 mg/kg/injection, schedule: Q01DX010 (sc), vehicle: steriod suspending solution) was 93 % of control.
For Oc1cc(CN(CCCl)CCCl)c(O)cc1CN(CCCl)CCCl, the T/C [10] was 117 % of control.
In the case of CC(=O)[C@H]1CC[C@H]2[C@@H]3C[C@H](C)C4=CC(=O)CC[C@]4(C)[C@H]3C(=O)C[C@]12C, the T/C (dose: 6.25 mg/kg/injection, schedule: Q01DX010 (sc), vehicle: steriod suspending solution) is reported as 100 % of control, the T/C (dose: 12.5 mg/kg/injection, schedule: Q01DX010 (sc), vehicle: steriod suspending solution) is reported as 107 % of control and the T/C (dose: 25.0 mg/kg/injection, schedule: Q01DX010 (sc), vehicle: steriod suspending solution) is reported as 103 % of control. For the same compound, the T/C (dose: 50.0 mg/kg/injection, schedule: Q01DX010 (sc), vehicle: steriod suspending solution) was 107 % of control.
With CSc1ncnc2nc[nH]c12 the T/C [7] was 92 % of control and the T/C [12] was 100 % of control.
N[C@@H](Cc1ccc(N(CCCl)CCCl)cc1)C(=O)O was tested, and the T/C [13] was 119 % of control and 123 % of control, the T/C (dose: 1.0 mg/kg/injection, schedule: Q01DX010 (ip), vehicle: other) was 88 % of control and the T/C [14] was 119 % of control and 123 % of control. For the same compound, the T/C [15] was 161 % of control.
In the case of CCc1c(CC(=O)O)c2cc(C)ccc2n1Cc1ccc(Cl)cc1, the T/C [5] is reported as 103 % of control, the T/C [6] is reported as 107 % of control and the T/C [7] is reported as 103 % of control.
With COC1C(OC(N)=O)C(O)C(Oc2ccc3c(O)c(NC(=O)c4ccc(O)c(CC=C(C)C)c4)c(=O)oc3c2C)OC1(C)C (stereo not given) the T/C [6] was 100 % of control, the T/C [7] was 104 % of control and the T/C [8] was 100 % of control. For the same compound, the T/C [11] was 103 % of control and 104 % of control, the T/C [12] was 96 % of control and the T/C (dose: 200.0 mg/kg/injection, schedule: Q01DX010 (ip), vehicle: saline) was 92 % of control.
In the case of NC(=O)c1ccc(N)nc1, the T/C (dose: 3.0 mg/kg/injection, schedule: Q01DX010 (ip), vehicle: saline) is reported as 90 % of control.
With CN(C)Cc1c[nH]c2ccccc12 the T/C (dose: 15.6 mg/kg/injection, schedule: Q01DX010 (ip), vehicle: saline) was 100 % of control and the T/C [4] was 100 % of control.
For Cn1cnc([N+](=O)[O-])c1Sc1nc(N)nc2nc[nH]c12, the T/C [9] was 100 % of control and 108 % of control, the T/C [10] was 100 % of control and 108 % of control and the T/C (dose: 5.0 mg/kg/injection, schedule: Q01DX010 (ip), vehicle: saline) was 88 % of control. The T/C [16] was 88 % of control.
In the case of C1CCNC1, the T/C (dose: 0.19 mg/kg/injection, schedule: Q01DX010 (ip), vehicle: saline) is reported as 93 % of control, the T/C (dose: 0.39 mg/kg/injection, schedule: Q01DX010 (ip), vehicle: saline) is reported as 86 % of control and the T/C (dose: 1.56 mg/kg/injection, schedule: Q01DX010 (ip), vehicle: saline) is reported as 96 % of control.
With O=CCC(O)C(O)C(O)CO (stereo not given) the T/C (dose: 125.0 mg/kg/injection, schedule: Q01DX010 (ip), vehicle: saline) was 103 % of control, the T/C [17] was 92 % of control and 107 % of control and the T/C (dose: 500.0 mg/kg/injection, schedule: Q01DX010 (ip), vehicle: saline) was 107 % of control and 115 % of control.
With CS(=O)(=O)OCCCl the T/C (dose: 18.8 mg/kg/injection, schedule: Q01DX010 (ip), vehicle: saline) was 89 % of control, the T/C (dose: 37.5 mg/kg/injection, schedule: Q01DX010 (ip), vehicle: saline) was 100 % of control and the T/C (dose: 75.0 mg/kg/injection, schedule: Q01DX010 (ip), vehicle: saline) was 92 % of control.
For CC(=O)Nc1ccc2nc3ccc(NC(C)=O)cc3[n+](-c3ccccc3)c2c1, the T/C [4] was 100 % of control, the T/C (dose: 62.5 mg/kg/injection, schedule: Q01DX010 (ip), vehicle: saline) was 103 % of control and the T/C [17] was 88 % of control.
With CC(CCC(C)OS(C)(=O)=O)OS(C)(=O)=O (stereo not given) the T/C [15] was 96 % of control and 103 % of control, the T/C (dose: 4.0 mg/kg/injection, schedule: Q01DX010 (ip), vehicle: saline) was 100 % of control and 107 % of control and the T/C [1] was 96 % of control and 100 % of control.
With Nc1nc2n[nH]nc2c(=O)[nH]1 the T/C (dose: 3.0 mg/kg/injection, schedule: Q01DX010 (ip), vehicle: alkali diluted with saline) was 100 % of control and 115 % of control, the T/C (dose: 6.0 mg/kg/injection, schedule: Q01DX010 (ip), vehicle: alkali diluted with saline) was 100 % of control and 111 % of control and the T/C (dose: 12.0 mg/kg/injection, schedule: Q01DX010 (ip), vehicle: alkali diluted with saline) was 107 % of control and 113 % of control.
In the case of CCC(=O)NC1=C(N2CC2)C(=O)C(NC(=O)CC)=C(N2CC2)C1=O, the T/C [18] is reported as 108 % of control, the T/C [19] is reported as 108 % of control and the T/C [13] is reported as 100 % of control. For the same compound, the T/C [14] was 112 % of control.
With CN[C@H]1CCc2cc(OC)c(OC)c(OC)c2-c2ccc(OC)c(=O)cc21 the T/C (dose: 0.63 mg/kg/injection, schedule: Q01DX010 (ip), vehicle: other) was 111 % of control and 115 % of control and the T/C (dose: 1.25 mg/kg/injection, schedule: Q01DX010 (ip), vehicle: other) was 100 % of control and 103 % of control.
With O[C@H](CN1CC1)[C@@H](O)CN1CC1 the T/C [18] was 88 % of control and the T/C [19] was 96 % of control.
With CCN(CC)CCNc1ccc(C)c2sc3ccccc3c(=O)c12 the T/C [16] was 108 % of control, the T/C (dose: 20.0 mg/kg/injection, schedule: Q01DX010 (ip), vehicle: saline) was 108 % of control and the T/C (dose: 40.0 mg/kg/injection, schedule: Q01DX010 (ip), vehicle: saline) was 112 % of control. The T/C (dose: 80.0 mg/kg/injection, schedule: Q01DX010 (ip), vehicle: saline) was 100 % of control.
C[C@@H](N)[C@@H](O)c1ccccc1 was tested, and the T/C [5] was 96 % of control.
In the case of C/C=C1\CN(C=O)C2CC3c4ccccc4NC3C(=O)CC1C2C(=O)OC (stereo not given), the T/C [5] is reported as 100 % of control, the T/C [6] is reported as 100 % of control and the T/C [7] is reported as 100 % of control. The T/C [8] was 100 % of control.
